Assay results taken from publication PMC9437101, “Curcumin-based-fluorescent probes targeting ALDH1A3 as a promising tool for glioblastoma precision surgery and early diagnosis” (Communications Biology, 2022).
Values joined by “and” are separate entries in the source; they are usually repeats but may differ in a detail not shown here. Equal values may be shown once.

What was measured:
ALDH1A1 = target: T1, ALDH1A1 (Homo sapiens, UniProt P00352); test: LC-HRMS analysis of isoenzyme activity in presence of probe; format: biochemical; details: 1 h incubation, LC-HRMS
T1 construct: E. coli BL21 (DE3) were transformed with the full-length expression vector of each isoform; His-tag; made in house; host or cells: E. coli BL21 (DE3)
T1 sequence (P00352 1-501): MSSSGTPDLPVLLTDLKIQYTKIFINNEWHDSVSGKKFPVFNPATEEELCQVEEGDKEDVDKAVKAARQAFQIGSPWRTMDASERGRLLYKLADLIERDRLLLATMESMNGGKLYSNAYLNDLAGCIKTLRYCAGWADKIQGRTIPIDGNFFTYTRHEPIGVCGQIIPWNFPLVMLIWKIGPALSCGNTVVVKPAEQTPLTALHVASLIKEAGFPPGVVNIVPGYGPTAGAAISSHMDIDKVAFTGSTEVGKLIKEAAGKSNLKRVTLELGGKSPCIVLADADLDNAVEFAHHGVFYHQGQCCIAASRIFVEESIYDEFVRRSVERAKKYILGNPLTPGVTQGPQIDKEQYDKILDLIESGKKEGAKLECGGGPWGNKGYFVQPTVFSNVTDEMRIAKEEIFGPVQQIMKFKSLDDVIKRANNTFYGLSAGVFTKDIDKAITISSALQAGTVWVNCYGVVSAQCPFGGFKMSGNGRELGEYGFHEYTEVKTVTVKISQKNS
Method: (§1) These analyses were carried out by using UPLC-HRMS procedure with Vanquish UPLC system coupled to a Thermo Scientific Q-Exactive Plus, operating in negative electrospray ionization mode. The chromatographic separation was carried out using a Phenomenex Synergi 4 µ Polar-RP 80 A (150 × 2 mm) equipped with a Phenomenex Polar-RP (4 mm × 2 mm) security guard column. The mobile phase consisted of A: acetonitrile 0.1% formic acid and B: 0.1% formic acid. We used a linear elution gradient, starting from 80% of A to 5% A in 3 min, 3 min at 5% A, an equilibration of 4 min for a total run time of 10.00 min, at 300 µl/min flow rate. The autosampler temperature was set at 15 °C, the injection volume was 5 µl and column was maintained at 40 °C. The heated electrospray ionization source was used, with a spray voltage of […], with a capillary temperature of 300 °C, a heater temperature of 350 °C, a sheat gas flow of 45 arbitrary units (AU), an auxiliary gas flow of 10 AU and a sweep gas flow of 0 AU. During the Parallel Reaction Monitoring acquisition in negative ion mode, the instrument operated at 17,500 resolution in presence of the inclusion list (m/z = 596.20384 and m/z = 612.19875 for Probe 10 and Probe 10-COOH respectively; m/z = 534.18819 and m/z = 506.156888 for Probe 11 and Probe 11-COOH respectively) with an automatic gain control target of 2 × 10^5 charges and a maximum injection time of 100 ms. Before injecting the samples, the blanks in the list were analyzed and every biological sample was analyzed in duplicate. The biological samples analyzed were as follow: (1) Enzymatic assay Buffer; (2) Enzymatic assay Buffer + NAD^+; (3) Enzymatic assay Buffer + Probe 10 or Probe 11; (4) Enzymatic assay Buffer + ALDH1A1; (5) Enzymatic assay Buffer + ALDH1A2; (6) Enzymatic assay Buffer + ALDH1A3; (7) Enzymatic assay Buffer + ALDH1A1 + Probe 10 or Probe 11; (8) Enzymatic assay Buffer + ALDH1A2 + Probe 10 or Probe 11; (9) Enzymatic assay Buffer + ALDH1A3 + Probe 10 or Probe 11. All samples were diluted 1:1 with ACN, then 1:100 in ACN-Water 1:1 prior the LC-HRMS analysis.

ALDH1A2 = target: T2, ALDH1A2 (Homo sapiens, UniProt O94788); test: as above; format: biochemical; details: 1 h incubation, LC-HRMS
T2 construct: E. coli BL21 (DE3) were transformed with the full-length expression vector of each isoform; His-tag; made in house; host or cells: E. coli BL21 (DE3)
T2 sequence (O94788 1-518): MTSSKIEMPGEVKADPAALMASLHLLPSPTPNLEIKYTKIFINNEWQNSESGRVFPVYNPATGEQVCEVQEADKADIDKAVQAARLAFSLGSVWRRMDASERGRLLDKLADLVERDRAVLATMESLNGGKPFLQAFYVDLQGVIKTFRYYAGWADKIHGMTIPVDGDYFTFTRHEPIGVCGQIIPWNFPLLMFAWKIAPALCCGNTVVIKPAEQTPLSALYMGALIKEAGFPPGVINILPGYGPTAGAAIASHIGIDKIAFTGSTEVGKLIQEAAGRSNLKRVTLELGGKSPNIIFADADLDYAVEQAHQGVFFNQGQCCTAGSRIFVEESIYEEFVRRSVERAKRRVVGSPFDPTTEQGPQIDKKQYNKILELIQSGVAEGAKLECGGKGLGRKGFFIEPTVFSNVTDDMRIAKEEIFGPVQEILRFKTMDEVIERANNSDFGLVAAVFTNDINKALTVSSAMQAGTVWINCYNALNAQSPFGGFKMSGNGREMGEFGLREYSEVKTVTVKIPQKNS
Method: as §1

U87MG glioblastoma cells = test: Fluorescent microscopy of probe in cells; format: cell-based, human; details: 10 µM; for fluorescence in cells: 2 h
Method: In total, 20,000 cells/ml of U87MG, HEK293T, hASTRO and 4T1 were seeded onto glass cover slips in 24-well plates. The cells incubated at 37 °C in a 5% CO2 atmosphere overnight. Cells were washed with 1 ml of PBS buffer two times, then a 10 μM solution of probes was added to each well for 2 h. For nuclei staining, 1 µg/ml of DAPI was added the last 15 min of treatment. The cover slips were removed and washed with PBS buffer, and fixed with 0.5 ml of 4% formaldehyde solution for 10 min. The cover slips were washed with 1 ml of PBS, then slides were prepared using Mounting Media (Merck Life Science). Fluorescence images were acquired using a Leica THUNDER Imager 3D Live Cell (Leica Microsystems, Wetzlar, Germany) microscope equipped with an S Fluor 40×/1.3 objective using the LAS X software.

[1] = test system: GL261 murine glioma cells; test: Imaging flow cytometry of living GL261 cells incubated with probe; format: cell-based; details: 1 h incubation
Method: GL261 cells were incubated, with probe 10 or 11, for 1 h and after three rinses in PBS, cells were detached by trypsin treatment and visualized without fixation through a rMarkII flow cytometer (Amnis, Luminex Corporation, Austin, TX, USA) as previously described. Data were collected using Inspire software (Amnis, version 2.0) with the following parameters: 10,000 images per sample, 488 nm laser (25 and 100 mW) to excite the probes, 785 nm laser used to provide a side scatter signal and measurement of SpeedBeads (Amnis, Luminex Corporation, Austin, TX, USA), 830 nm laser used for internal bead calibration of core flow speed and focus, ×60 objective, in low-speed flow. Data were further analyzed by Ideas software (Amnis, version 6.1).

CCOC(=O)Cn1cc(COc2ccc(/C=C/C(=O)/C=C(O)/C=C/c3ccc(O)c(OC)c3)cc2OC)nn1 [Probe 11]
oxidation of probe to carboxylic derivative / substrate behaviour (ALDH1A1): has not been shown to be a substrate | oxidation of probe to carboxylic derivative / substrate behaviour (ALDH1A2): has not been shown to be a substrate | fluorescence in cells (U87MG glioblastoma cells): fluorescence has been observed using Probe 11 only in U87MG cell lines | entry into and labelling of GL261 cells in vitro [1]: able to enter and label the murine glioblastoma cells

COc1cc(/C=C/C(O)=C/C(=O)/C=C/c2ccc(OCc3cn(CCOc4ccc(C=O)cc4)nn3)c(OC)c2)ccc1O [Probe 10]
oxidation of probe to carboxylic derivative / substrate behaviour (ALDH1A1): fully metabolized | oxidation of probe to carboxylic derivative / substrate behaviour (ALDH1A2): in part | fluorescence in cells (U87MG glioblastoma cells): can determine fluorescence | If ROI (U87MG glioblastoma cells; U87-MG, 2 h (Fig. 5g)): 238.82 a.u. and 283.69 a.u. and 302.7 a.u. and 195.53 a.u. and 182.63 a.u. | entry into and labelling of GL261 cells in vitro [1]: able to enter and label the murine glioblastoma cells
